Measured values taken from patent publication US20160349268A1, “STEPWISE ASSEMBLED CAPTURE COMPOUNDS COMPRISING A CLEAVABLE FUNCTION AND METHOD FOR ISOLATING AND/OR CHARACTERIZING BIOMOLECULES OR BIOMOLECULE FRAGMENTS, IN PARTICULAR PROTEINS OR PROTEIN FRAGMENTS, OF COMPLEX MIXTURES” (CAPROTEC BIOANALYTICS GMBH, priority 2014, published 2016).

Assays:
Format in all cases: physicochemical
[1] = Cleavage of 1 (CPT600) after photo-reaction in solution (UV irradiation, HCl treatment, RP-HPLC UV/MS); settings: BPC + All MS
Procedure: In a 100 μL PCR tube, 20 μL 73 μM 1 (CPT600) was irradiated at 4° C. for 5 min in the caproBox (310 nm version, caprotec bioanalytics GmbH, Berlin, Germany). 1.7 μL 37% HCl was added, mixed and the solution was incubated on a thermoshaker at 37° C. for 2 h. Then 100 μL Milli-Q water and 9 μL 2N NaOH were added and mixed. The resulting solution as analyzed by RP-HPLC coupled to a UV detector and a mass spectrometer (FIG. 6 and Table 2a) as described in example 1. As a control, the same sample but with only very brief incubation under acidic conditions (r.t. for about 10 s instead of 37° C. for 2 h) was prepared (FIG. 7 and Table 2b).

[2] = Cleavage of 1 (CPT600) after photo-reaction on CPG-pN3, with CPG-Ac and in-solution controls; design: Area: unit not given here
Procedure: 20 μL 10 mg/mL 1 (CPT600)-loaded CPG-pN3 from example 1 were transferred into a 100 μL PCR tube, centrifuged, the supernatant was discarded and 20 μL in water was added. The suspension was irradiated at 4° C. for 5 min (with re-suspending every 30 s) in the caproBox (310 nm version, caprotec bioanalytics GmbH, Berlin, Germany). 1.7 μL 37% HCl was added, mixed and the solution was incubated on a thermoshaker at 37° C. for 2 h. Then 100 μL Milli-Q water and 9 μL 2N NaOH were added and mixed. After centrifugation, the resulting supernatant was analyzed by RP-HPLC coupled to a UV detector and a mass spectrometer as described in example 1. As a control, the same sample but with only very brief incubation under acidic conditions (r.t. for about 10 s instead of 37° C. for 2 h) was prepared.
Further controls included using 1 (CPT600)-treated CPG-Ac from example 1 (short and long acid treatment) instead of 1 (CPT600)-loaded CPG-pN3 and 1 (CPT600) in solution (short and long acid treatment) as described in example 2. All six experiments were performed side-by-side.

[3] = Cleavage reaction of photo-reacted compound 11 (12) with HCl / 2-nitrobenzhydrazide, LC-MS; settings: for Area/a.u. (LC-MS EIC peak): 45 μM 12, 1 h room temperature
Procedure: A solution of 75 μL 56 μM 11 (CPT727, Capture Compound bearing tetrazine as sorting function and a chemically cleavable photo-reactivity function) in 50% acetonitrile was irradiated with UV light (λmax=310 nm) for 5 min at 4° C. in the caproBox to activate the reactivity function yielding 12 (Scheme 12).
Cleavage of the photo-reacted reactivity function (15) from 12 yielding also 17 as a product (Scheme 13) was investigated under several conditions summarized in Table 5. The reaction was performed in a final volume of 10 μl for 1 h at room temperature. Each reaction mixture contained 8 μl of the above described solution of 12 (45 μM final concentration), 1 μl 100 mM or 10 mM 2-nitrobenzhydrazide in DMSO or just DMSO and 1 μl 100 mM or 10 mM HCl in water or just water. Analysis was performed by LC-MS. Integration of peak areas corresponding to the respective species is included into Table 5.

[4] = 1 (CPT600) after UV irradiation and HCl 37 °C 2 h
[5] = In solution, 0 h HCl, BPC + All MS
[6] = In solution, 0 h HCl, UV 254 nm
[7] = CPG-Ac instead of CPG-pN3, 2 h acidic treatment
[8] = In solution, 2 h HCl, UV 254 nm
[9] = In solution, 2 h HCl, BPC + All MS
[10] = On CPG-Ac, 2 h HCl, BPC + All MS
[11] = On CPG-pN3, 2 h HCl, BPC + All MS
[12] = c(HCl) 0 mM, c(2-nitrobenzhydrazide) 0 mM
[13] = c(HCl) 0 mM, c(2-nitrobenzhydrazide) 1 mM
[14] = c(HCl) 0 mM, c(2-nitrobenzhydrazide) 10 mM
[15] = c(HCl) 1 mM, c(2-nitrobenzhydrazide) 0 mM
[16] = c(HCl) 1 mM, c(2-nitrobenzhydrazide) 1 mM
[17] = c(HCl) 1 mM, c(2-nitrobenzhydrazide) 10 mM
[18] = c(HCl) 10 mM, c(2-nitrobenzhydrazide) 0 mM
[19] = c(HCl) 10 mM, c(2-nitrobenzhydrazide) 1 mM
[20] = c(HCl) 10 mM, c(2-nitrobenzhydrazide) 10 mM

In the case of `C#CCNC(=O)C1(C(=O)NCCCC[C@@H](C(=O)NCCc2ccc(NC(=O)CCCCCCC(=O)O)cc2)[N+](C)(C)C)COC(c2ccc(C3(C(F)(F)F)N=N3)cc2)OC1` (stereo partly shown) [Compound 2], the “Area (MS-peak integration)” value [1, 4] is reported as 167125312 and the “Area Frac. %” value [1, 4] is reported as 2.52%.
In the case of `C#CCNC(=O)C1(C(=O)NCCCC[C@@H](C(=O)NCCc2ccc(NC(=O)CCCCCCC(=O)NO)cc2)[N+](C)(C)C)COC(c2ccc(C(O)C(F)(F)F)cc2)OC1` (stereo partly shown) [Compound 3], the “Area (MS-peak integration)” value [1, 4] is reported as 432395200, the “Area Frac. %” value [1, 4] is reported as 6.52% and the “Area (MS-peak integration)” value ([1]; 1 (CPT600) after UV irradiation, very brief acid (r.t. about 10 s, control)) is reported as 3091667200. The Area [2, 5] was 2114062848, the “Area Frac %” value [2, 5] was 100.00% and the Area [2, 6] was 31.679. For the same compound, the “Area Frac %” value [2, 6] was 100.00%.
With `C#CCNC(=O)C1(C(=O)NCCCC[C@@H](C(=O)NCCc2ccc(NC(=O)CCCCCCC(=O)O)cc2)[N+](C)(C)C)COC(c2ccc(C(O)C(F)(F)F)cc2)OC1` (stereo partly shown) [Compound 4] the “Area (MS-peak integration)” value [1, 4] was 386267200 and the “Area Frac. %” value [1, 4] was 5.82%.
In the case of `O=Cc1ccc(C(O)C(F)(F)F)cc1` (stereo not shown) [Compound 6], the “amount of cleavage fragment relative to the respective CPG-pN3 sample (UV peak areas)” value [2, 7] is reported as 8.0%, the “amount of cleavage fragment relative to the respective sample in solution (UV peak areas)” value [2, 7] is reported as 3.9% and the Area [2, 8] is reported as 63.355. For the same compound, the “Area Frac %” value [2, 8] was 55.35%, the Area ([2]; On CPG-Ac, 2 h HCl, UV 254 nm) was 2.4903 and the “Area Frac %” value ([2]; On CPG-Ac, 2 h HCl, UV 254 nm) was 30.94%. For the same compound, the Area ([2]; On CPG-pN3, 2 h HCl, UV 254 nm) was 30.9728, the “Area Frac %” value ([2]; On CPG-pN3, 2 h HCl, UV 254 nm) was 85.18% and the “amount of cleavage fragment relative to the respective sample in solution (UV peak areas)” value ([2]; UV-irradiated 1 (CPT600)-loaded CPG-pN3, 2 h acidic treatment) was 48.9%.
For `C#CCNC(=O)C(CO)(CO)C(=O)NCCCC[C@@H](C(=O)NCCc1ccc(NC(=O)CCCCCCC(=O)O)cc1)[N+](C)(C)C` [Compound 7], the “Area (MS-peak integration)” value [1, 4] was 1798498944, the “Area Frac. %” value [1, 4] was 27.10% and the “amount in supernatant of CPG bead samples compared to solution sample (base peak MS peak areas)” value ([2]; 2 h acidic treatment) was 16.1%. For the same compound, the Area [2, 9] was 1793367808, the “Area Frac %” value [2, 9] was 35.46% and the Area [2, 8] was 15.084. The “Area Frac %” value [2, 8] was 13.18%, the Area [2, 10] was 114680936 and the “Area Frac %” value [2, 10] was 41.23%. For the same compound, the Area [2, 11] was 288188416 and the “Area Frac %” value [2, 11] was 65.33%.
With `Cc1nnc(-c2ccc(CN(CC(=O)NCCCCNc3ncnc4c3ncn4C3OC(CSCC[C@H](N)C(=O)O)C(O)C3O)C(=O)CC/C=N/N(C)C(=O)c3ccc(C(O)C(F)(F)F)cc3)cc2)nn1` (stereo partly shown) [Compound 12] the fraction cleaved ([3]; 1 mM or higher concentration of HCl alone, room temperature, within 1 h) was “more than 60%”, the “detection of starting material” value ([3]; 10 mM HCl and 1 mM or 10 mM 2-nitrobenzhydrazide) was “no longer detected” and the “Area/a.u. (LC-MS EIC peak)” value [3, 12] was 865231808 a.u. The “Area/a.u. (LC-MS EIC peak)” value [3, 13] was 601044672 a.u, the “Area/a.u. (LC-MS EIC peak)” value [3, 14] was 616590720 a.u and the “Area/a.u. (LC-MS EIC peak)” value [3, 15] was 315121856 a.u. For the same compound, the “Area/a.u. (LC-MS EIC peak)” value [3, 16] was 130056936 a.u, the “Area/a.u. (LC-MS EIC peak)” value [3, 17] was 5361744 a.u and the “Area/a.u. (LC-MS EIC peak)” value [3, 18] was 17781000 a.u.
With `CN(N)C(=O)c1ccc(C(O)C(F)(F)F)cc1` (stereo not shown) [Compound 15] the “Area/a.u. (LC-MS EIC peak)” value [3, 12] was 15540301 a.u, the “Area/a.u. (LC-MS EIC peak)” value [3, 13] was 19033696 a.u and the “Area/a.u. (LC-MS EIC peak)” value [3, 14] was 20155070 a.u. For the same compound, the “Area/a.u. (LC-MS EIC peak)” value [3, 15] was 75526584 a.u, the “Area/a.u. (LC-MS EIC peak)” value [3, 16] was 93782304 a.u and the “Area/a.u. (LC-MS EIC peak)” value [3, 17] was 120971320 a.u. The “Area/a.u. (LC-MS EIC peak)” value [3, 18] was 101335752 a.u, the “Area/a.u. (LC-MS EIC peak)” value [3, 19] was 119463976 a.u and the “Area/a.u. (LC-MS EIC peak)” value [3, 20] was 130339744 a.u.
With `Cc1nnc(-c2ccc(CN(CC(=O)NCCCCNc3ncnc4c3ncn4C3OC(CSCC[C@H](N)C(=O)O)C(O)C3O)C(=O)CC/C=N/NC(=O)c3ccccc3[N+](=O)[O-])cc2)nn1` (stereo partly shown) [Compound 17] the “Area/a.u. (LC-MS EIC peak)” value [3, 13] was 50293356 a.u, the “Area/a.u. (LC-MS EIC peak)” value [3, 14] was 116403456 a.u and the “Area/a.u. (LC-MS EIC peak)” value [3, 16] was 623734464 a.u. For the same compound, the “Area/a.u. (LC-MS EIC peak)” value [3, 17] was 1157550976 a.u, the “Area/a.u. (LC-MS EIC peak)” value [3, 19] was 694334592 a.u and the “Area/a.u. (LC-MS EIC peak)” value [3, 20] was 1188207104 a.u.
